Results published in patent US20250236639A1, “NEUROACTIVE STEROIDS AND COMPOSITIONS THEREOF” (Sage Therapeutics, Inc., priority 2019, published 2025).

target: GABAA receptor; experiment: Steroid inhibition of [35S]-TBPS binding, rat brain cortical membranes; conditions: 3 nM [35S]-TBPS, in the presence of 5 mM GABA
Method: [^35S]-t-Butylbicyclophosphorothionate (TBPS) binding assays using rat brain cortical membranes in the presence of 5 mM GABA has been described (Gee et al, J. Pharmacol. Exp. Ther. 1987, 241, 346-353; Hawkinson et al, Mol. Pharmacol. 1994, 46, 977-985; Lewin, A. H et al., Mol. Pharmacol. 1989, 35, 189-194).
Briefly, cortices are rapidly removed following decapitation of carbon dioxide-anesthetized Sprague-Dawley rats (200-250 g). The cortices are homogenized in 10 volumes of ice-cold 0.32 M sucrose using a glass/teflon homogenizer and centrifuged at 1500×g for 10 min at 4° C. The resultant supernatants are centrifuged at 10,000×g for 20 min at 4° C. to obtain the P2 pellets. The P2 pellets are resuspended in 200 mM NaCl/50 mM Na—K phosphate pH 7.4 buffer and centrifuged at 10,000×g for 10 min at 4° C. This washing procedure is repeated twice and the pellets are resuspended in 10 volumes of buffer. Aliquots ([…]) of the membrane suspensions are incubated with 3 nM [^35S]-TBPS and […] aliquots of test drug dissolved in dimethyl sulfoxide (DMSO) (final 0.5%) in the presence of 5 mM GABA. The incubation is brought to a final volume of 1.0 mL with buffer. Nonspecific binding is determined in the presence of […] and ranged from 15 to 25%. Following a 90 min incubation at room temp, the assays are terminated by filtration through glass fiber filters (Schleicher and Schuell No. 32) using a cell harvester (Brandel) and rinsed three times with ice-cold buffer. Filter bound radioactivity is measured by liquid scintillation spectrometry. Non-linear curve fitting of the overall data for each drug averaged for each concentration is done using Prism (GraphPad). […] The concentration of test compound producing 50% inhibition (IC50) of specific binding and the maximal extent of inhibition (Imax) are determined for the individual experiments with the same model used for the overall data and then the means±SEM.s of the individual experiments are calculated.
Various compounds are or can be screened to determine their potential as modulators of [^35S]-TBPS binding in vitro. These assays are or can be performed in accordance with the above

Q: For `COC[C@@]1(O)CC[C@H]2[C@H](CC[C@@H]3[C@@H]2CC[C@]2(C)[C@@H](C(C)(Cn4cc(C#N)cn4)OC)CC[C@@H]32)C1` (stereo in doubt) [Compound 32, 1-((R)-2-((3R,5R,8R,9R,10S,13S,14S,17S)-3-hydroxy-3-(methoxymethyl)-13-methylhexadecahydro-1H-cyclopenta[a]phenanthren-17-yl)-2-methoxypropyl)-1H-pyrazole-4-carbonitrile], which IC50 is on record?
A: 100 to 1000 nM

Q: With `COC[C@@]1(O)CC[C@H]2[C@H](CC[C@@H]3[C@@H]2CC[C@]2(C)[C@@H](C(C)(Cn4cc(C#N)cn4)OC)CC[C@@H]32)C1` (stereo in doubt) [Compound 33, 1-[(2S)-2-[(1S,3aS,3bR,5aR,7R,9aS,9bR,11aS)-7-hydroxy-7-(methoxymethyl)-11a-methyl-hexadecahydro-1H-cyclopenta[a]phenanthren-1-yl]-2-methoxypropyl]-1H-pyrazole-4-carbonitrile] as the compound, how does the IC50 read?
A: 100 to 1000 nM

Q: `C[C@@]1(O)CC[C@H]2[C@H](CC[C@@H]3[C@@H]2CC[C@@]2(C)[C@H]3CC[C@@H]2[C@@](C)(O)Cn2cc(C#N)cn2)C1` [Compound 1, 1-((R)-2-hydroxy-2-((3R,5R,8R,9R,10S,13S,14S,17S)-3-hydroxy-3,13-dimethylhexadecahydro-1H-cyclopenta[a]phenanthren-17-yl)propyl)-1H-pyrazole-4-carbonitrile] was tested. Which IC50 did it give?
A: < 100 nM

Q: For `C[C@@]1(O)CC[C@H]2[C@H](CC[C@@H]3[C@@H]2CC[C@@]2(C)[C@H]3CC[C@@H]2[C@](C)(O)Cn2cc(C#N)cn2)C1` [Compound 2, 1-((S)-2-hydroxy-2-((3R,5R,8R,9R,10S,13S,14S,17S)-3-hydroxy-3,13-dimethylhexadecahydro-1H-cyclopenta[a]phenanthren-17-yl)propyl)-1H-pyrazole-4-carbonitrile], which IC50 is on record?
A: < 100 nM

Q: For `CC[C@]12CC[C@@](C)(O)C[C@H]1CC[C@H]1[C@@H]3CC[C@H]([C@](C)(O)Cn4cc(C#N)cn4)[C@@]3(C)CC[C@@H]12` [Compound 3, 1-((S)-2-((3R,5R,8S,9S,10S,13S,14S,17S)-10-ethyl-3-hydroxy-3,13-dimethylhexadecahydro-1H-cyclopenta[a]phenanthren-17-yl)-2-hydroxypropyl)-1H-pyrazole-4-carbonitrile], which IC50 is on record?
A: < 100 nM

Q: With `CC[C@]12CC[C@@](C)(O)C[C@H]1CC[C@H]1[C@@H]3CC[C@H]([C@@](C)(O)Cn4cc(C#N)cn4)[C@@]3(C)CC[C@@H]12` [Compound 4, 1-((R)-2-((3R,5R,8S,9S,10S,13S,14S,17S)-10-ethyl-3-hydroxy-3,13-dimethylhexadecahydro-1H-cyclopenta[a]phenanthren-17-yl)-2-hydroxypropyl)-1H-pyrazole-4-carbonitrile] as the compound, how does the IC50 read?
A: < 100 nM

Q: For `CC[C@]12CC[C@@](C)(O)C[C@H]1CC[C@H]1[C@@H]3CC[C@H]([C@@](C)(Cn4cc(C#N)cn4)OC)[C@@]3(C)CC[C@@H]12` [Compound 5, 1-((S)-2-((3R,5R,8S,9S,10S,13S,14S,17S)-10-ethyl-3-hydroxy-3,13-dimethylhexadecahydro-1H-cyclopenta[a]phenanthren-17-yl)-2-methoxypropyl)-1H-pyrazole-4-carbonitrile], which IC50 is on record?
A: < 100 nM

Q: How did the IC50 turn out when `CC[C@]12CC[C@@](C)(O)C[C@H]1CC[C@H]1[C@@H]3CC[C@H]([C@](C)(Cn4cc(C#N)cn4)OC)[C@@]3(C)CC[C@@H]12` [Compound 6, 1-((R)-2-((3R,5R,8S,9S,10S,13S,14S,17S)-10-ethyl-3-hydroxy-3,13-dimethylhexadecahydro-1H-cyclopenta[a]phenanthren-17-yl)-2-methoxypropyl)-1H-pyrazole-4-carbonitrile] was run?
A: < 100 nM

Q: How did the IC50 turn out when `CCC[C@@]1(O)CC[C@H]2[C@H](CC[C@@H]3[C@@H]2CC[C@@]2(C)[C@H]3CC[C@@H]2[C@](C)(O)Cn2cc(C#N)cn2)C1` [Compound 7, 1-((S)-2-hydroxy-2-((3R,5R,8R,9R,10S,13S,14S,17S)-3-hydroxy-13-methyl-3-propylhexadecahydro-1H-cyclopenta[a]phenanthren-17-yl)propyl)-1H-pyrazole-4-carbonitrile] was run?
A: < 100 nM

Q: `CCC[C@@]1(O)CC[C@H]2[C@H](CC[C@@H]3[C@@H]2CC[C@@]2(C)[C@H]3CC[C@@H]2[C@@](C)(O)Cn2cc(C#N)cn2)C1` [Compound 8, 1-((R)-2-hydroxy-2-((3R,5R,8R,9R,10S,13S,14S,17S)-3-hydroxy-13-methyl-3-propylhexadecahydro-1H-cyclopenta[a]phenanthren-17-yl)propyl)-1H-pyrazole-4-carbonitrile] was tested. Which IC50 did it give?
A: 100 to 1000 nM

Q: Which IC50 does the source give for `CCC[C@@]1(O)CC[C@H]2[C@@H](CC[C@@H]3[C@@H]2CC[C@@]2(C)[C@H]3CC[C@@H]2[C@](C)(O)Cn2cc(C#N)cn2)C1` [Compound 9, 1-((S)-2-hydroxy-2-((3R,5S,8R,9R,10S,13S,14S,17S)-3-hydroxy-13-methyl-3-propylhexadecahydro-1H-cyclopenta[a]phenanthren-17-yl)propyl)-1H-pyrazole-4-carbonitrile] here?
A: 100 to 1000 nM

Q: `CCC[C@@]1(O)CC[C@H]2[C@@H](CC[C@@H]3[C@@H]2CC[C@@]2(C)[C@H]3CC[C@@H]2[C@@](C)(O)Cn2cc(C#N)cn2)C1` [Compound 10, 1-((R)-2-hydroxy-2-((3R,5S,8R,9R,10S,13S,14S,17S)-3-hydroxy-13-methyl-3-propylhexadecahydro-1H-cyclopenta[a]phenanthren-17-yl)propyl)-1H-pyrazole-4-carbonitrile] was tested. Which IC50 did it give?
A: ≥ 1000 nM

Q: With `CC[C@@]1(O)CC[C@H]2[C@H](CC[C@@H]3[C@@H]2CC[C@@]2(C)[C@H]3CC[C@@H]2[C@](C)(O)Cn2cc(C#N)cn2)C1` [Compound 11, 1-((S)-2-((3R,5R,8R,9R,10S,13S,14S,17S)-3-ethyl-3-hydroxy-13-methylhexadecahydro-1H-cyclopenta[a]phenanthren-17-yl)-2-hydroxypropyl)-1H-pyrazole-4-carbonitrile] as the compound, how does the IC50 read?
A: < 100 nM

Q: `CC[C@@]1(O)CC[C@H]2[C@H](CC[C@@H]3[C@@H]2CC[C@@]2(C)[C@H]3CC[C@@H]2[C@@](C)(O)Cn2cc(C#N)cn2)C1` [Compound 12, 1-((R)-2-((3R,5R,8R,9R,10S,13S,14S,17S)-3-ethyl-3-hydroxy-13-methylhexadecahydro-1H-cyclopenta[a]phenanthren-17-yl)-2-hydroxypropyl)-1H-pyrazole-4-carbonitrile] was tested. Which IC50 did it give?
A: 100 to 1000 nM

Q: For `CC[C@@]1(O)CC[C@H]2[C@@H](CC[C@@H]3[C@@H]2CC[C@@]2(C)[C@H]3CC[C@@H]2[C@](C)(O)Cn2cc(C#N)cn2)C1` [Compound 13, 1-((S)-2-((3R,5S,8R,9R,10S,13S,14S,17S)-3-ethyl-3-hydroxy-13-methylhexadecahydro-1H-cyclopenta[a]phenanthren-17-yl)-2-hydroxypropyl)-1H-pyrazole-4-carbonitrile], which IC50 is on record?
A: 100 to 1000 nM

Q: With `CC[C@@]1(O)CC[C@H]2[C@@H](CC[C@@H]3[C@@H]2CC[C@@]2(C)[C@H]3CC[C@@H]2[C@@](C)(O)Cn2cc(C#N)cn2)C1` [Compound 14, 1-((R)-2-((3R,5S,8R,9R,10S,13S,14S,17S)-3-ethyl-3-hydroxy-13-methylhexadecahydro-1H-cyclopenta[a]phenanthren-17-yl)-2-hydroxypropyl)-1H-pyrazole-4-carbonitrile] as the compound, how does the IC50 read?
A: ≥ 1000 nM
